# Results as given in US8334315B2, “Substituted aromatic carboxamide and urea derivatives as vanilloid receptor ligands” (Gruenenthal GmbH, priority 2009, dated 2012).
# What was measured:
# [1] = biological target: T1, rat-species vanilloid receptor 1 (VR1/TRPV1) (Rattus norvegicus, UniProt O35433); assay: Functional testing on the vanilloid receptor 1, FLIPR Ca2+ influx in rat DRG cells, capsaicin; format: cell-based; set-up: key to Ki (rat) [nM] Cap: agonist / partial agonist / no effect: AG=agonist; pAG=partial agonist; NE=no effect
# T1 construct: endogenous in cells; host or cells: primary cells dissociated from rat dorsal root ganglia (DRG), cultured 2-3 days with NGF
# Description: I. Functional Testing Carried Out on the Vanilloid Receptor 1 (VRI/TRPV1 Receptor)
# (§1) The agonistic or antagonistic effect of the substances to be tested on the rat-species vanilloid receptor 1 (VR1/TRPV1) can be determined using the following assay. In this assay, the influx of Ca^2+ through the receptor channel is quantified with the aid of a Ca^2+-sensitive dye (type Fluo-4, Molecular Probes Europe BV, Leiden, the Netherlands) in a fluorescent imaging plate reader (FLIPR, Molecular Devices, Sunnyvale, USA).
# Complete medium: 50 ml HAMS F12 nutrient mixture (Gibco Invitrogen GmbH, Karlsruhe, Germany) with
# 10% by volume of FCS (foetal calf serum, Gibco Invitrogen GmbH, Karlsruhe, Germany, heat-inactivated);
# 2 mM L-glutamine (Sigma, Munich, Germany);
# 1% by weight of AA solution (antibiotic/antimyotic solution, PAA, Pasching, Austria) and 25 ng/ml NGF medium (2.5 S, Gibco Invitrogen GmbH, Karlsruhe, Germany)
# Cell culture plate: Poly-D-lysine-coated, black 96-well plates having a clear base (96-well black/clear plate, BD Biosciences, Heidelberg, Germany) are additionally coated with laminin (Gibco Invitrogen GmbH, Karlsruhe, Germany), the laminin being diluted with PBS (Ca—Mg-free PBS, Gibco Invitrogen GmbH, Karlsruhe, Germany) to a concentration of 100 μg/ml. Aliquots having a laminin concentration of 100 μg/ml are removed and stored at −20° C. The aliquots are diluted with PBS in a ratio of 1:10 to 10 μg/ml of laminin and respectively 50 μL of the solution are pipetted into a recess in the cell culture plate. The cell culture plates are incubated for at least two hours at 37° C., the excess solution is removed by suction and the recesses are each washed twice with PBS. The coated cell culture plates are stored with excess PBS which is not removed until just before the feeding of the cells.
# Preparation of the Cells:
# The vertebral column is removed from decapitated rats and placed immediately into cold HBSS buffer (Hank's buffered saline solution, Gibco Invitrogen GmbH, Karlsruhe, Germany), i.e. buffer located in an ice bath, mixed with 1% by volume (per cent by volume) of an AA solution (antibiotic/antimyotic solution, PAA, Pasching, Austria). The vertebral column is cut longitudinally and removed together with fasciae from the vertebral canal. Subsequently, the dorsal root ganglia (DRG) are removed and again stored in cold HBSS buffer mixed with 1% by volume of an AA solution. The DRG, from which all blood remnants and spinal nerves have been removed, are transferred in each case to 500 μL of cold type 2 collagenase (PAA, Pasching, Austria) and incubated for 35 minutes at 37° C. After the addition of 2.5% by volume of trypsin (PAA, Pasching, Austria), incubation is continued for 10 minutes at 37° C. After complete incubation, the enzyme solution is carefully pipetted off and 500 μL of complete medium are added to each of the remaining DRG. The DRG are respectively suspended several times, drawn through cannulae No. 1, No. 12 and No. 16 using a syringe and transferred to a 50 ml Falcon tube which is filled up to 15 ml with complete medium. The contents of each Falcon tube are respectively filtered through a 70 μm Falcon filter element and centrifuged for 10 minutes at 1,200 rpm and RT. The resulting pellet is respectively taken up in 250 μL of complete medium and the cell count is determined.
# The number of cells in the suspension is set to 3×10^5 per ml and 150 μL of this suspension are in each case introduced into a recess in the cell culture plates coated as described hereinbefore. In the incubator the plates are left for two to three days at 37° C., 5% by volume of CO2 and 95% relative humidity. […]
# hVR1 [2] = biological target: T2, hVR1 (Homo sapiens, UniProt Q8NER1); assay: Functional test on human VR1, NADA (N-arachidonoyl dopamine) stimulus; format: cell-based, human being; details: includes values given in brackets after pAG, read-out: Ki (human being) [nM] NADA
# T2 construct: expressed in transfected cells; host or cells: CHO K1 cells (ECACC), stably transfected
# Description: II. Functional Tests Carried Out on the Vanilloid Receptor (VR1)
# as §1, with “the” for “the rat-species”, “(VR1)” for “(VR1/TRPV1)”, “can also” for “can”, “the” for “the receptor”
# Chinese hamster ovary cells (CHO K1 cells, European Collection of Cell Cultures (ECACC) United Kingdom) are stably transfected with the VR1 gene. For functional testing, these cells are plated out on poly-D-lysine-coated black 96-well plates having a clear base (BD Biosciences, Heidelberg, Germany) at a density of 25,000 cells/well. The cells are incubated overnight at 37° C. and 5% CO2 in a culture medium (Ham's F12 nutrient mixture, 10% by volume of FCS (foetal calf serum), 18 μg/ml of L-proline). The next day the cells are incubated with Fluo-4 (Fluo-4 2 μM, 0.01% by volume of Pluronic F127, Molecular Probes in HBSS (Hank's buffered saline solution), Gibco Invitrogen GmbH, Karlsruhe, Germany) for 30 minutes at 37° C. Subsequently, the plates are washed three times with HBSS buffer and after further incubation for 15 minutes at RT used for Ca^2+ measurement in a FLIPR assay. The Ca^2+-dependent fluorescence is measured before and after the addition of the substances to be tested (λex wavelength=488 nm, λem=540 nm). Quantification is carried out by measuring the highest fluorescence intensity (FC, fluorescence counts) over time.
# The FLIPR protocol consists of 2 substance additions. First the compounds to be tested (10 μM) are pipetted onto the cells and the Ca^2+ influx is compared with the control (capsaicin 10 μM) (% activation based on the Ca^2+ signal after the addition of 10 μM of capsaicin). […]
# Desensitising agonists and antagonists led to suppression of the Ca^2+ influx. The % inhibition is calculated compared to the maximum achievable inhibition with 10 μM of capsaicin.
# Starting from the percentage displacement caused by different concentrations of the compounds to be tested of general formula I, IC50 inhibitory concentrations which cause a 50-per cent displacement of capsaicin were calculated. Ki values for the test substances were obtained by conversion by means of the Cheng-Prusoff equation (Cheng, Prusoff; Biochem. Pharmacol. 22, 3099-3108, 1973).
# NADA=N-arachidonoyl dopamine
# hVR1 [3] = biological target: T2, hVR1; assay: Functional test on hVR1 after pH stimulus; format: cell-based, human being; details: @ 10 μM, read-out: IC50 (human being) hVR1, pH: inhibition (as a percentage)
# hVR1 [4] = biological target: T2, hVR1; assay: Functional test on human VR1, 45° C. stimulus; format: cell-based, human being; details: @ 10 μM, read-out: IC50 (human being), 45° C.: inhibition (as a percentage)
# hVR1 [5] = biological target: T2, hVR1; assay: Functional test on VR1, FLIPR Ca2+ influx in transfected CHO K1 cells, capsaicin; format: cell-based, human being; details: capsaicin (Cap); includes values given in brackets after pAG; read-out: Ki (human being) [nM] Cap
# hVR1 [6] = biological target: T2, hVR1; assay: as above; format: cell-based; details: capsaicin (Cap), read-out: Ki (human being) Cap column: inhibition (as a percentage)
# T2 sequence (Q8NER1 whole entry): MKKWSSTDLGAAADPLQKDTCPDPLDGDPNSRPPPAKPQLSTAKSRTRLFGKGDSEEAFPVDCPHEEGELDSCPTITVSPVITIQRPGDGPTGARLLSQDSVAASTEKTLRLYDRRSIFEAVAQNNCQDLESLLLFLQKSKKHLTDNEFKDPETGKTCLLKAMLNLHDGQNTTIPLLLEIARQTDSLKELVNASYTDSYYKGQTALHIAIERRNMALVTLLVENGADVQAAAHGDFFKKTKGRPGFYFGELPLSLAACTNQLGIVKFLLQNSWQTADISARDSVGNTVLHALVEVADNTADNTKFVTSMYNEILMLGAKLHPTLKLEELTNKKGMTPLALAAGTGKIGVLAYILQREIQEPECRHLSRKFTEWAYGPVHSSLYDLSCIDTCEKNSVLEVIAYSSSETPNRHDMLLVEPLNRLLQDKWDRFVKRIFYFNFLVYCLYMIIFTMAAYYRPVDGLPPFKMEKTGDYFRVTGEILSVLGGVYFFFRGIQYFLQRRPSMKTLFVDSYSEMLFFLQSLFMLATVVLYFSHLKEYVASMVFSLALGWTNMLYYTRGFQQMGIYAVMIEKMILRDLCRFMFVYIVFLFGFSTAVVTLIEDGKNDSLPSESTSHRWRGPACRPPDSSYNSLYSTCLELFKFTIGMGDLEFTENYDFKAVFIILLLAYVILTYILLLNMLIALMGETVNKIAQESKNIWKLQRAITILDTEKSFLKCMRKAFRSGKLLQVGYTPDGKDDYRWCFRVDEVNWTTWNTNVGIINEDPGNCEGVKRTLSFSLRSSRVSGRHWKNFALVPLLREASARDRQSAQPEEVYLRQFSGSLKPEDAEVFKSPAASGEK
# T1 sequence (O35433 whole entry): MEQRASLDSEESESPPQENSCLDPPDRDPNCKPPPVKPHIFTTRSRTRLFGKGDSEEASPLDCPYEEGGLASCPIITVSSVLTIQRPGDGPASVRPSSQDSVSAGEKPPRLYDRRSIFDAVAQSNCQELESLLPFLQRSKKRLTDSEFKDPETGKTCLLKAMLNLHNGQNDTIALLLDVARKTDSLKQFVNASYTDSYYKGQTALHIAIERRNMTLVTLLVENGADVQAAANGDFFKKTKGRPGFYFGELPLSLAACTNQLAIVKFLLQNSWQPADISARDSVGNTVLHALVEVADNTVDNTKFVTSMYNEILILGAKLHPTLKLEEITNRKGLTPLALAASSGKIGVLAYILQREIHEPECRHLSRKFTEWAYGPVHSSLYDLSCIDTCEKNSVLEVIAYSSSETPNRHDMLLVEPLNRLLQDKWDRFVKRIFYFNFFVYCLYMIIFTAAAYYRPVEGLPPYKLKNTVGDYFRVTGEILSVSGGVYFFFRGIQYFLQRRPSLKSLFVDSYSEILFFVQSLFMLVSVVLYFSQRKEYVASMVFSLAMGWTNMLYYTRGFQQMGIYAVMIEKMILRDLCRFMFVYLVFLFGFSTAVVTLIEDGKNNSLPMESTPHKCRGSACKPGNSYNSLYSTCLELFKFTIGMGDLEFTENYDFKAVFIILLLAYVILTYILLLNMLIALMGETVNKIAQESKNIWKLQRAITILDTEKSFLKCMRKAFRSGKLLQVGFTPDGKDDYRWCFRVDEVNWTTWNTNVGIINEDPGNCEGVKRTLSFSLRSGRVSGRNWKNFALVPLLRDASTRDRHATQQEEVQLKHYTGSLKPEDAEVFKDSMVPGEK
SMILES,Ki (rat) [nM] Cap: agonist / partial agonist / no effect [1],"Ki ([1]; capsaicin (Cap), includes values given in brackets after pAG) [nM]",Ki (hVR1 [2]) [nM],inhibition at 10 µM (hVR1 [3]) [%],inhibition at 10 µM (hVR1 [4]) [%],Ki (hVR1 [5]) [nM],inhibition at 5 µM (hVR1 [6]) [%]
"CC(C(=O)NCc1cc(C(C)(C)C)nn1-c1ccc(F)c(Cl)c1)c1cccc2cnccc12 (stereo not shown) [Example 69, N-((3-tert-butyl-1-(3-chloro-4-fluorophenyl)-1H-pyrazol-5-yl)methyl)-2-(isoquinolin-5-yl)propanamide]",pAG,0.9,0.004,13,26,0.2,
"COc1ccc(Cn2nc(C(F)(F)F)cc2CNC(=O)C(C)c2ccc3c(c2)OCCO3)cc1 (stereo not shown) [Example 202, 2-(2,3-dihydrobenzo[b][1,4]dioxin-6-yl)-N-((1-(4-methoxybenzyl)-3-(trifluoromethyl)-1H-pyrazol-5-yl)methyl)propanamide]",,,,,,,13
